Reference: US10668039B2, “Methods for treatment of adenoid cystic carcinoma” (THE CHILDREN'S MEDICAL CENTER CORPORATION, priority 2016, dated 2020)
“Also recorded” adds a separate entry of the source.

Tests used:
c-myb:GFP positive cells = test: Confocal imaging of CHT, c-myb:GFP positive cells; type: in vivo, zebrafish; conditions: 10 μM, treated 48-72 hpf, imaged at 72 hpf
Experimental: (§1) Confocal imaging: Double transgenic c-myb:GFP; lyz:dsRed or c-myb:GFP; mpeg1:mCherry embryos from the same clutch were treated between 48-72 hpf (n=4 biological replicates per treatment group) with 10 μM ATRA diluted in E3. Live 72 hpf embryos were embedded in 0.8% low-melting point agarose containing 0.04 mg/mL Tricaine and imaged on a Nikon Eclipe Ti microscope with 20× Plan-Apo DIC N.A. 0.75. CHT cells were counted in Z-stack image projections processed on Imaris software (Bitplane).

MYB [1] = test: Western blot of ACC primagrafts, MYB; type: in vivo, human; conditions: long-term ACC x11 and short-term (3 days) ACC x5M1 primagrafts
Text: (§2) Primagraft experiments: For in vivo drug testing, ACC tumor fragments from host animals were implanted subcutaneously into the flank of nude mice (CRL: ATH/NU). Once tumors reached 125-250 mm3, mice were randomized to receive vehicle or drug diluted in 10:90 DMSO:10% hydroxypropyl-beta-cyclodextrin orally until controls reached a tumor volume endpoint of 1-2 cm3 (4-9 mice per group: x5M1 and x6, 4 treated vs. 9 vehicle controls; x9, 4 treated vs. 5 vehicle controls; x11, 5 treated vs. 8 vehicle controls). Mice were treated with ATRA (ACC x6 and x11: 4 mg/mL, 0.2 mL flat dose; ACC×9: 3 mg/mL, 0.2 mL flat dose) or isotretinoin (30 mg/mL, 0.2 mL flat dose). Tumor growth was monitored and mice weighed twice weekly and studies ended when final group reached tumor volume endpoint. No statistical methods were employed to determine the sample size, and no blinding of investigators was performed. […]
Western blots: ACC x11 (from long-term tumor growth inhibition studies) and ACC x5M1 (from short-term kinetics studies) primagrafts were mechanically homogenized in RIPA lysis buffer (Thermo Scientific) supplemented by addition of complete protease inhibitor cocktail (Roche). Protein concentrations were determined by DC protein assay (BioRad).

c-myb = test: In situ hybridization of whole embryos, c-myb; type: in vivo, zebrafish; conditions: 10 μM, treated 48-72 hpf, fixed at 72 hpf
Experimental: In situ hybridization: In situ hybridization was done for c-myb as described in North (2007). Wildtype AB zebrafish embryos were treated with RAs in the E3 water at the indicated doses during 48-72 hpf, after which point they were fixed in 4% PFA. Qualitative scoring (number of embryos with altered number of HSCs scored) of c-myb positive cells was conducted by assessing the caudal hematopoietic tissue (CHT) region by the tail.
(§3) In situ hybridization: Wildtype AB embryos from the same clutch were treated between 48-72 hpf with 10 μM retinoic acid agonists diluted in E3, fixed at 72 hpf in 4% paraformaldehyde, and processed as previously described. CHT staining in the embryos was blindly scored as high, medium, or low, and summed across 3 independent experiments as done previously. Representative images were acquired on a Nikon ZMS 18 microscope.

H3K27ac = test: ChIP-seq of short-term ACC x9 primagrafts, H3K27ac; type: in vivo, human; conditions: 3 days
Text: as §2
(§4) All ChIP-Seq datasets were aligned to UCSC build version hg19 of the human genome using Bowtie2 (version 2.2.1) with the following parameters: -end-to-end, —NO, -L20. […] ChIP-seq enrichment was determined as described previously in a 5 kb region (as counts per million) centered on the enriched peak regions (n=1,868) of the given MYB datasets. […]

1-plastin = test: In situ hybridization of whole embryos, 1-plastin; type: in vivo, zebrafish; conditions: 10 μM, treated 48-72 hpf, fixed at 72 hpf
Experimental: as §3

mpx = test: In situ hybridization of whole embryos, mpx; type: in vivo, zebrafish; conditions: 10 μM, treated 48-72 hpf, fixed at 72 hpf
Experimental: as §3

lyz:dsRed positive cells = test: Confocal imaging of CHT, lyz:dsRed positive cells; type: in vivo, zebrafish; conditions: 10 μM, treated 48-72 hpf, imaged at 72 hpf
Experimental: as §1

MYB [2] = test: ChIP-seq of short-term ACC x9 primagrafts, MYB binding; type: in vivo, human; conditions: 3 days
Text: as §2, §4

cleaved caspase-3 = test: Immunohistochemistry of ACC primagrafts, cleaved caspase-3; type: in vivo, nude mice; conditions: ACC x6, x9, x11 primagrafts at conclusion of long-term studies
Text: as §2
Immunohistochemistry: Sectioning and staining was carried out by the Dana-Farber/Harvard Cancer Center Specialized Histopathology Core using standard procedures on ACC x6, x9, and x11 samples (from long-term tumor growth inhibition studies). […] Primary antibody was detected using Bond Polymer Refine Detection kit. […] Images (>200 nuclei each) from three different individual primagrafts were blindly quantitated.

[3] = patients, 45 mg/m2 oral dose of ATRA, first day of treatment; cited from earlier work
ACC PDX models = test: ATRA comparison TGI studies in ACC PDX models; type: in vivo; conditions: ATRA 8 mg/kg to 32 mg/kg; tamibarotene 2 mg/kg
Experimental: The TGI studies in ACC PDX models were repeated in order to compare the original ATRA dose (3 or 4 mg/ml) against a more physiologically relevant dose of ATRA (8 mg/kg) and an alternative retinoid Tamibarotene (originally developed for ATRA-resistant cancer settings, approved in Japan and currently in development at Syros Pharmaceuticals).

CC(C=CC1=C(C)CCCC1(C)C)=CC=C/C(C)=C/C(=O)O [ATRA, (E)-3,7-dimethyl-9-(2,6,6-trimethyl-1-cyclo-hexen-1-yl)-2,4,6,8-nonatetraenoic acid]
number of c-myb:GFP+ cells in the CHT (c-myb:GFP positive cells): significant decrease; also recorded: decreased
MYB protein expression (wildtype and fusion) (MYB [1]): decreases
c-myb expression (staining) in the CHT (c-myb): significant decrease; also recorded: decreased staining
H3K27ac at translocated enhancer sites (H3K27ac): decrease
1-plastin expression (staining) in the CHT (1-plastin): no significant difference; also recorded: did not decrease staining
mpx expression (staining) in the CHT (mpx): no significant difference; also recorded: did not decrease staining
lyz:dsRed+ cells in the CHT (lyz:dsRed positive cells): no significant difference; also recorded: no significant effect
enrichment among MYB-bound regions genome-wide (MYB [2]): reduced enrichment
cell death (cleaved caspase-3 positive nuclei) (cleaved caspase-3): induced more cell death
median plasma concentration [3]: approximately 1 μM
tumor growth inhibition in the PDX studies (ACC PDX models): showed tumor growth inhibition
